Values of other authors in publication PMC10419174, “WR1065 conjugated to thiol-PEG polymers as novel anticancer prodrugs: broad spectrum efficacy, synergism, and drug resistance reversal” (Frontiers in Oncology, 2023).
Where two headings read alike, the source gives them in different places.

Key:
Lung NCI-H1975 cells = tested on: Lung NCI-H1975 cells; set-up: method as in PMID 29258181, PMID 12507923, PMID 35770045, PMID 31488557; settings: cited from earlier work
Lung A549 cells = tested on: Lung A549 cells; set-up: method as in PMID 29258181, PMID 12507923, PMID 35770045, PMID 31488557; settings: cited from earlier work
Lung NCI-H460 cells = tested on: Lung NCI-H460 cells; set-up: method as in PMID 29258181, PMID 12507923, PMID 35770045, PMID 31488557; settings: cited from earlier work
Ovary SKOV3 cells = tested on: Ovary SKOV3 cells; set-up: method as in PMID 29258181, PMID 12507923, PMID 35770045, PMID 31488557; settings: cited from earlier work
[1] = tested on: Acute promyelocytic HL60 leukemia cells; set-up: method as in PMID 29258181, PMID 12507923, PMID 35770045, PMID 31488557; settings: cited from earlier work
[2] = cited from earlier work
Pancreas PANC-1 cells = tested on: Pancreas PANC-1 cells; set-up: method as in PMID 29258181, PMID 12507923, PMID 35770045, PMID 31488557; settings: cited from earlier work
[3] = tested on: Mammary gland MDA-MB-231 cells; set-up: method as in PMID 29258181, PMID 12507923, PMID 35770045, PMID 31488557; settings: cited from earlier work

## COCC1(CO)C(=O)C2CCN1CC2 (centres unmarked) [APR-246]
Lung NCI-H1975 cells
  IC50: 9.6 µM
Lung A549 cells
  IC50: 29 µM
Lung NCI-H460 cells
  IC50: 225 µM
Ovary SKOV3 cells
  IC50: 16.7 µM
[1]
  IC50: ~20 µM

## COc1cc2ncnc(Nc3ccc(F)c(Cl)c3)c2cc1OCCCN1CCOCC1 [GEF, gefitinib, reference compound]
[2]; 250 mg daily, after 3 days of treatment
  trough levels: 0.257−4.50 µM
[2]; 250 mg daily, after 8 days of treatment
  trough levels: 0.282−6.55 µM
[2]; 250 mg daily, printed 'or more', read-out: Cmax plasma concentrations
  Cmax: 500 to 1000 nM
[2]
  elimination half-life: 48 h

## O=C1C2CCN(CC2)C1(CO)CO [PRIMA-1]
Lung A549 cells
  GI50: 63 µM
Lung NCI-H460 cells
  GI50: 40 µM
Pancreas PANC-1 cells
  IC50: 66 µM
Ovary SKOV3 cells
  GI50: 63 µM
[3]
  IC50: 141 µM
